Columns and labels:
HAL-01 = experiment: MTS cell proliferation assay; assay type: cell-based; details: Homo sapiens, growth inhibition after 72 h
Method: (§1) The myeloid leukemia cell lines MV-4-11, MOLT-4, MOLM-16, HL-60, and the human B lymphocyte cell line […] were purchased from the American Type Culture Collection (ATCC, Manassas, VA, United States). The myeloid leukemia cell line HAL-01 was obtained from the Deutsche Sammlung von Mikroorganismen und Zellkulturen GmbH (DSMZ, Braunschweig, Germany). All cells were cultured in IMDM or RPMI -1640 medium supplemented with 10% FBS, 100 U/mL penicillin, and 100 μg/mL streptomycin. The cells were maintained in a humidified incubator with an atmosphere of 5% CO2 at 37°C.
(§2) The in vitro anti-proliferative activity of the compounds was determined using the CellTiter 96® AQueous NonRadioactive Cell Proliferation Assay Kit (Promega, Madison, United States) as previously described ([Ji et al., 2017]). In brief, 5–10 × 10^3 cells and 180 μL of medium were first seeded into each well of a 96-well plate. Subsequently, the cells were exposed to either 0.2% Dimethyl sulfoxide (DMSO, Aladdin Reagent, Shanghai, China) or a serial dilution of the compounds, prepared from a 10 mM stock solution in DMSO, with the final concentration of DMSO being 0.2% for 72 h. 20 μL of MTS reagent was added to each well, and the culture was incubated in the dark at 37°C for 4 h. Finally, the optical density (OD) was then recorded at 490 nm and 690 nm using a microplate reader from Molecular Devices. The proliferation inhibition rate was calculated according to the following formula: inhibition ratio = (OD of DMSO treated wells - OD of compound treated wells)/(OD of DMSO treated wells - OD of blank wells) × 100%. The IC50 values of the compounds inhibiting cell proliferation were calculated using GraphPad Prism 10 (GraphPad Software Inc., San Diego, CA).
(§3) ^aIC50 (μM) is the concentration of compound needed to reduce cell growth by 50% after 72 h treatment with LTM-1.

HL-60 = experiment: MTS cell proliferation assay; assay type: cell-based; details: Homo sapiens, growth inhibition after 72 h
Method: as §1, §2, §3

MOLM-16 = experiment: MTS cell proliferation assay; assay type: cell-based; details: MOLM16; growth inhibition after 72 h
Method: as §1, §2, §3

MOLT-4 = experiment: MTS cell proliferation assay; assay type: cell-based; details: Homo sapiens, growth inhibition after 72 h
Method: as §1, §2, §3

[1] = tested on: MOLT-4, MOLM-16, HAL-01, and HL-60; experiment: MTS cell proliferation assay, other AML cell lines together; assay type: cell-based; details: range over MOLT-4, MOLM-16, HAL-01, HL-60; read-out: IC50 across other AML cell lines
Method: as §1
The in vitro anti-proliferative activity of the compounds was determined using the CellTiter 96® AQueous NonRadioactive Cell Proliferation Assay Kit (Promega, Madison, United States) as previously described ([Ji et al., 2017]). In brief, 5–10 × 10^3 cells and 180 μL of medium were first seeded into each well of a 96-well plate. […] Finally, the optical density (OD) was then recorded at 490 nm and 690 nm using a microplate reader from Molecular Devices. […] The IC50 values of the compounds inhibiting cell proliferation were calculated using GraphPad Prism 10 (GraphPad Software Inc., San Diego, CA).

BMX = BMX (Homo sapiens, UniProt P51813); experiment: SelectScreen kinase profiling; assay type: biochemical
Method: (§4) The kinase selectivity analysis of LTM-1 was performed utilizing the SelectScreen Kinase Profiling Service offered by Thermo Fisher Scientific. In a dose-response assay featuring a ten-point dilution series from 0.25 μM to 128 μM, the inhibitory effects of LTM-1 on substrate phosphorylation reactions catalyzed by a panel of kinases were assessed. Consequently, the half-maximal inhibitory concentrations (IC50 values) for each kinase were determined.

CDK13 = CDK13 (Homo sapiens, UniProt Q14004); experiment: SelectScreen kinase profiling; assay type: biochemical
Method: as §4

CDK19 = CDK19 (Homo sapiens, UniProt Q9BWU1); experiment: SelectScreen kinase profiling; assay type: biochemical
Method: as §4

CDK6 = CDK6 (Homo sapiens, UniProt Q00534); experiment: SelectScreen kinase profiling; assay type: biochemical
Method: as §4

EPHB4 = EPHB4 (Homo sapiens, UniProt P54760); experiment: SelectScreen kinase profiling; assay type: biochemical
EPHB4, sequence (P54760 16-987): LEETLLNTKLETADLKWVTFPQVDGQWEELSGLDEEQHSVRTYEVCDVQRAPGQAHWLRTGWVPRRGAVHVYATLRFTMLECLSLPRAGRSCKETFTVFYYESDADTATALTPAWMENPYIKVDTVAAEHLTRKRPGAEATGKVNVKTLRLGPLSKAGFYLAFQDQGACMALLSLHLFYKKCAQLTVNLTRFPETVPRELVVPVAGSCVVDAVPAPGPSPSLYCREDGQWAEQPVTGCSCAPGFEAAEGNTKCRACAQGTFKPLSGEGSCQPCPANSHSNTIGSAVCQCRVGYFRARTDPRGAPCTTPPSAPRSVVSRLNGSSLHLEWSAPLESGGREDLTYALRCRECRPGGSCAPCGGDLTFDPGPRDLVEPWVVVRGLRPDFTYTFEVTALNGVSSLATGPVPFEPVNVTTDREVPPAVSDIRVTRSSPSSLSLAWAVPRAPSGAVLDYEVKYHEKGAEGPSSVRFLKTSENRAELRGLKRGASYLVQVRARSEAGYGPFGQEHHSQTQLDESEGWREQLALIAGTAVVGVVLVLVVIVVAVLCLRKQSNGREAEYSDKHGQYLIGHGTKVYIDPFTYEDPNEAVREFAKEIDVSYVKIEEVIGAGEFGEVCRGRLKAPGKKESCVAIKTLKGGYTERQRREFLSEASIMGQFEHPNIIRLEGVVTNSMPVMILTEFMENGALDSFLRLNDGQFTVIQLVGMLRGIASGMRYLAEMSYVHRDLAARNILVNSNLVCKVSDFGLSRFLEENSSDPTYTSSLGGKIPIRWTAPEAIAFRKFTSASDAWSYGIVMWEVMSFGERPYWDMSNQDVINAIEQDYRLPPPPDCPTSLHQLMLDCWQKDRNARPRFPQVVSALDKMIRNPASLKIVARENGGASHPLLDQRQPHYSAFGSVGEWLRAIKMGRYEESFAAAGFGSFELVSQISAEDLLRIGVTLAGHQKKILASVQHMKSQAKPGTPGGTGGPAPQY
Method: as §4

ERBB2 = ERBB2 (Homo sapiens, UniProt P04626); experiment: SelectScreen kinase profiling; assay type: biochemical
ERBB2, sequence (P04626 23-1255): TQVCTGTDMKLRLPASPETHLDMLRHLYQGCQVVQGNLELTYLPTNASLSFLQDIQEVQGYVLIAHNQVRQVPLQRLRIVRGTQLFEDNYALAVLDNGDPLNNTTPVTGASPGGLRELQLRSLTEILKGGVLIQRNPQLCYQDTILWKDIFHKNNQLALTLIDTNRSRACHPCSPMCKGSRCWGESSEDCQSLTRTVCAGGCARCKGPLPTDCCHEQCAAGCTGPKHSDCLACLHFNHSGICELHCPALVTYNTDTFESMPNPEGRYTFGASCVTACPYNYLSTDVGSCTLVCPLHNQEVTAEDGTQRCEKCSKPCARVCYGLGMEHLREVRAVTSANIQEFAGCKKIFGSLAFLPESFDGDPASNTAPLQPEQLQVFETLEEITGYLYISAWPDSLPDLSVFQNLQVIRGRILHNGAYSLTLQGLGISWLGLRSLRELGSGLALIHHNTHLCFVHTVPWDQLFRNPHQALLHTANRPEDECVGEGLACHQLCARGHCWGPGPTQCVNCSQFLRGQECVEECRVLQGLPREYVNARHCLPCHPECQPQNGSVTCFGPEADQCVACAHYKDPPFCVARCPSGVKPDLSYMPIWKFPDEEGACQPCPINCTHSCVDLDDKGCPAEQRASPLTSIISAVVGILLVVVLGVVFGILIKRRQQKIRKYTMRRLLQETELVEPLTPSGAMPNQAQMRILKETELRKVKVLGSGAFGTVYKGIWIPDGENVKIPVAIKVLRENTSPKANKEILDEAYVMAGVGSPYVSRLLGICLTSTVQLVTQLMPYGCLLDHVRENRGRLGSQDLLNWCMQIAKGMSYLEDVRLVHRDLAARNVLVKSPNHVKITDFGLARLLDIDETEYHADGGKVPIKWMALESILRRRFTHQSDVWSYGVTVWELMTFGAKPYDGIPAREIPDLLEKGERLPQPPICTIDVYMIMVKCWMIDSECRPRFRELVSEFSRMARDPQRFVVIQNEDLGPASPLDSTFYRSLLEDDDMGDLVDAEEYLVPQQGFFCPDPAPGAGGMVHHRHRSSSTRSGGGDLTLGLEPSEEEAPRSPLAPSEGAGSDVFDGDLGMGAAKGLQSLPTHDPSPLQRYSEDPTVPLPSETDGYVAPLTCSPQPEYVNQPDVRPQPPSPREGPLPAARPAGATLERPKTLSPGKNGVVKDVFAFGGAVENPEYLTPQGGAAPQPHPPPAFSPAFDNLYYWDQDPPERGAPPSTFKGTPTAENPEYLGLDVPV
Method: as §4

ERBB4 = ERBB4 (Homo sapiens, UniProt Q15303); experiment: SelectScreen kinase profiling; assay type: biochemical
Method: as §4

FGFR4 = FGFR4 (Homo sapiens, UniProt P22455); experiment: SelectScreen kinase profiling; assay type: biochemical
FGFR4, sequence (P22455 22-802): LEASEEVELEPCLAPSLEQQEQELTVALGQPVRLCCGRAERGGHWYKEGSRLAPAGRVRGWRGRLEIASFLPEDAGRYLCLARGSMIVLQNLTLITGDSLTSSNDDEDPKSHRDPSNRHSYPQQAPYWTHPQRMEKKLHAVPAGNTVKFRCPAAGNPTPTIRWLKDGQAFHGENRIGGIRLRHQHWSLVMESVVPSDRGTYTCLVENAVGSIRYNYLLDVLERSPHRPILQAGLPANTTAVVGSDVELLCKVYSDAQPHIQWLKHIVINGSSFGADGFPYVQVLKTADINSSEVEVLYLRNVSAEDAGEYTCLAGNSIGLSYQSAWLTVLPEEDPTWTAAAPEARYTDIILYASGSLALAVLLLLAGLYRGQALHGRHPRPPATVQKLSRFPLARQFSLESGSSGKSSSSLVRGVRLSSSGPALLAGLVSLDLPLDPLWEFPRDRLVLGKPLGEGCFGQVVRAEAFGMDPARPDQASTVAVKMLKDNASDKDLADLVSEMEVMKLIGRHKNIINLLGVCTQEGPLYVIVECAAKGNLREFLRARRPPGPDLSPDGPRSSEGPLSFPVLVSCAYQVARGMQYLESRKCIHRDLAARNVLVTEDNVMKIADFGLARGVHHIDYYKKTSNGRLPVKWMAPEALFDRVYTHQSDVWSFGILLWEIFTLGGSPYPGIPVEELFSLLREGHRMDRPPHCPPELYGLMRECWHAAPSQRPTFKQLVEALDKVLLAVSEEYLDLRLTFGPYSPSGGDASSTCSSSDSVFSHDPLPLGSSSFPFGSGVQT
Method: as §4

FGR = FGR (Homo sapiens, UniProt P09769); experiment: SelectScreen kinase profiling; assay type: biochemical
FGR, sequence (P09769 whole entry): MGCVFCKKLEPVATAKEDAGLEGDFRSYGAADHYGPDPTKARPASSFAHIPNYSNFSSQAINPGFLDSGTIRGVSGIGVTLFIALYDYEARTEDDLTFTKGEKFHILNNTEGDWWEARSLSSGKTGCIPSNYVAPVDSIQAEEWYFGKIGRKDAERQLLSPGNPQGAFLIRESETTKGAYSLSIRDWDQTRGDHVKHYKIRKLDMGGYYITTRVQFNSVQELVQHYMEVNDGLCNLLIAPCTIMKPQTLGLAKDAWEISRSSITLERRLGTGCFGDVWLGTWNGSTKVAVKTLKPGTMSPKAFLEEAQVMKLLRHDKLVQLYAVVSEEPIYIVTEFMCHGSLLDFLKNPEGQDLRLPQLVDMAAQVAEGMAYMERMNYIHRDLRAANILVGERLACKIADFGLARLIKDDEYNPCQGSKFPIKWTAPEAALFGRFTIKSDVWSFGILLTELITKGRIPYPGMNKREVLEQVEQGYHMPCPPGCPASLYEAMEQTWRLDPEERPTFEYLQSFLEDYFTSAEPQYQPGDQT
Method: as §4

FRK = FRK (Homo sapiens, UniProt P42685); experiment: SelectScreen kinase profiling; assay type: biochemical
FRK, sequence (P42685 whole entry): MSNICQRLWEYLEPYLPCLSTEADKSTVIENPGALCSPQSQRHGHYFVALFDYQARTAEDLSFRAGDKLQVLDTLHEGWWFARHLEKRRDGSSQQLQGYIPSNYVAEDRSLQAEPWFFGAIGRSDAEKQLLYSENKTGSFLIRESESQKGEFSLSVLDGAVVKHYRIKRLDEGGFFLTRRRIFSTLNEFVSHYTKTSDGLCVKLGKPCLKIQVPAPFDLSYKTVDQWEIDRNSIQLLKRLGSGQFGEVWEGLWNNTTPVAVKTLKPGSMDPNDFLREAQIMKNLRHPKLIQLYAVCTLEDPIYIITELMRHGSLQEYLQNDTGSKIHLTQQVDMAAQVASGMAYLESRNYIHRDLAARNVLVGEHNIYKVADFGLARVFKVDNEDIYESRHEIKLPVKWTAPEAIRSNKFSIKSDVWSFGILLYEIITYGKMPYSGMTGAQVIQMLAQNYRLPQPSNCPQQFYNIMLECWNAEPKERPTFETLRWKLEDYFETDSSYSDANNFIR
Method: as §4

KIT = KIT (Homo sapiens, UniProt P10721); experiment: SelectScreen kinase profiling; assay type: biochemical
KIT, sequence (P10721 26-976): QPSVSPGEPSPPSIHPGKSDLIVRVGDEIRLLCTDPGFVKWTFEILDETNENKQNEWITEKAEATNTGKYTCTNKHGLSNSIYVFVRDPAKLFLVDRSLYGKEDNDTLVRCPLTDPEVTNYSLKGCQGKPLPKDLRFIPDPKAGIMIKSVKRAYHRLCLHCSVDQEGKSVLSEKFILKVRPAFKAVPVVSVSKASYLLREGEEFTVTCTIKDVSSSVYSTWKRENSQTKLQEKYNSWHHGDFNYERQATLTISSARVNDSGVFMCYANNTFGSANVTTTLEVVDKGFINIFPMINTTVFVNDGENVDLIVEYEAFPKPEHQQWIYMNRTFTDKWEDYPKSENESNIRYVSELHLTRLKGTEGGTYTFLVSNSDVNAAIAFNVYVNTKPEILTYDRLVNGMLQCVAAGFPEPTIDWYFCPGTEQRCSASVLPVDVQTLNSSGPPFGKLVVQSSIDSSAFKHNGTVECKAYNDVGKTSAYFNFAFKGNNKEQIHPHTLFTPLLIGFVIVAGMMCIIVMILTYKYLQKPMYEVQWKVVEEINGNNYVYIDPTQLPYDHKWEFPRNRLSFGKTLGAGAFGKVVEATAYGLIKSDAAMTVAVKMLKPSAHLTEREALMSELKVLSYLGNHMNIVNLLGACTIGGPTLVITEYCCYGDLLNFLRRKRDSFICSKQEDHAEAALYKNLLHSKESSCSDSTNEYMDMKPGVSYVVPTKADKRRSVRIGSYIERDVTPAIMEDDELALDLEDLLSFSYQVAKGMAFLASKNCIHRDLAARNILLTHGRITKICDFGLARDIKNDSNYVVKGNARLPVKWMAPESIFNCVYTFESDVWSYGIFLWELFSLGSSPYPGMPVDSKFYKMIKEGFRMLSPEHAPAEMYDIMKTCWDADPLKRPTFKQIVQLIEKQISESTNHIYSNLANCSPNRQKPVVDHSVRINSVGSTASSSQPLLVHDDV
Method: as §4

MUSK = MUSK (Homo sapiens, UniProt O15146); experiment: SelectScreen kinase profiling; assay type: biochemical
Method: as §4

RAF1 = RAF1 (Homo sapiens, UniProt P04049, Y340D/Y341D); experiment: SelectScreen kinase profiling; assay type: biochemical
Method: as §4

For `O=S(=O)(c1ccc(C(O)CO)c(C(F)(F)F)c1)N1CCc2cc(C3CC3NCC3CCNCC3)ccc21` (stereo not drawn) [LTM-1], the IC50 (HAL-01) was 0.25 ± 0.01 µM, the IC50 (HL-60) was 0.39 ± 0.03 µM and the IC50 (MOLM-16) was 0.27 ± 0.02 µM. For the same molecule, the IC50 (MOLT-4) was 0.19 ± 0.01 µM, the IC50 [1] was 0.19 to 0.39 µM and the IC50 (BMX) was > 10 µM. For the same molecule, the IC50 (CDK13) was > 10 µM, the IC50 (CDK19) was > 10 µM and the IC50 (CDK6) was > 10 µM. The IC50 (EPHB4) was > 10 µM, the IC50 (ERBB2) was > 10 µM and the IC50 (ERBB4) was > 10 µM. For the same molecule, the IC50 (FGFR4) was > 10 µM, the IC50 (FGR) was > 10 µM and the IC50 (FRK) was > 10 µM. The IC50 (KIT) was > 10 µM, the IC50 (MUSK) was > 10 µM and the IC50 (RAF1) was > 10 µM.

Reference: paper PMC11903733 (Frontiers in Pharmacology, 2025)
